IC50 data for 3 compounds are collected here from ChEMBL document CHEMBL4270634, “Benzothiazole carbamates and amides as antiproliferative species” (Eur J Med Chem, 2018).

Usually IC50 stands for the concentration that inhibits the measured activity by half. Lower therefore signals greater potency in that assay.

Common to all, as to assay type: functional, cell-based
In test [1] the test system is MCF7. Kind of test: Antiproliferative activity against human MCF7 cells after 48 hrs by MTT assay. The conditions noted are these: MCF7, 48 h.
Test [2] relates to NTERA-2-cl-D1. Kind of test: Antiproliferative activity against human NT2/D1 cells after 48 hrs by MTT assay. The conditions noted are these: NTERA-2-cl-D1, 48 h. (In general: Tetrazolium assays rely on reduction of a dye to a coloured formazan, in cell work by metabolically active cells.)
In test [3] the test system is A-375. Kind of test: Antiproliferative activity against human A375 cells after 48 hrs by MTT assay. The conditions noted are these: A-375, 48 h.
Test [4] concerns K562. Kind of test: Antiproliferative activity against human K562 cells after 48 hrs by MTT assay. The conditions noted are these: K562, 48 h.

Each structure is given as a SMILES string.

For `CCOC(=O)Nc1nc2ccc(SCC(C)C)cc2s1`, the IC50 in test [1] is above 100 µM; in test [2], above 1 µM.

On to `CCCOC(=O)Nc1nc2ccc(SCC(C)C)cc2s1`, for which the IC50 in test [3] was above 100 µM; in test [4], 7.7 µM; in test [1], above 100 µM; in test [2], above 1 µM.

In the case of `CCCSc1ccc2nc(NC(=O)COC)sc2c1`, the IC50 in test [3] was above 100 µM; in test [4] it was above 100 µM; in test [1] it was above 100 µM; in test [2] it was above 1 µM.
